Test results from publication PMC6403188, “Species-Specific Structural Requirements of Alpha-Branched Trehalose Diester Mincle Agonists” (Frontiers in Immunology, 2019).

Assays:
mouse Mincle = molecular target: T1, mouse Mincle (Mus musculus, UniProt Q9R0Q8); test: HEK cells expressing mouse Mincle with NF-κB-driven SEAP reporter; format: cell-based; details: average calculated EC50, n = 3; plate-coated compound, 24 h; read-out: mMincle EC50 (converted)
T1 construct: host or cells: HEK (HEK-Blue) cells with NF-κB-driven SEAP reporter
T1 sequence (Q9R0Q8 1-214): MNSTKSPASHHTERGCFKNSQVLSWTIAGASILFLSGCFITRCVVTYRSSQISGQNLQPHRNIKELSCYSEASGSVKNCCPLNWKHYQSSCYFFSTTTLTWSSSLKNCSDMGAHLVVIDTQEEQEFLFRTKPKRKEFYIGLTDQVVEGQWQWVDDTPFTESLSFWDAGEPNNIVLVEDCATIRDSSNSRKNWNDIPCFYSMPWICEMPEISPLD
Procedure: Human and mouse Mincle expressing HEK cells were obtained from Invivogen (San Diego, CA). Cells were cultured according to the manufactures instructions in DMEM with 10% FBS, 50 U/ml penicillin, […] streptomycin, […] Normocin, 2 mM L-glutamine, 30 μg/ml blasticidin, 1 μg/ml puromycin and 1x HEK-Blue™ CLR Selection. For assay, indicated compounds were serially diluted in diluent (50%IPA/50% isooctane), 20 μl of a 10x final concentration were applied to the bottom of a 96-well tissue culture plate and the solvent was evaporated for >1 h in a biosafety hood. HEK cells were applied to the plates at a density of 3 × 10^5 cells/well and incubated for 18–24 h at 37°C. Cell supernatants were harvested and analyzed via the manufacturer's instructions using Hek-Blue^TM Detection. SEAP activity was assessed by reading the optical density (OD) at 620–655 nm with a microplate reader; data are expressed as the fold change in OD over vehicle treated cells.
To investigate the capacity of these molecules to bind to and activate the Mincle receptor, we used human embryonic kidney (HEK) cells expressing the human or mouse Mincle receptor along with an NF-κB-driven secreted embryonic alkaline phosphatase (SEAP) reporter. Many of the αTDE compounds were able to induce production of SEAP in a dose dependent manner (Figure 2). HEK null cells (HEK cells containing the NF-kB reporter without Mincle receptor) were used as a negative controls to confirm the receptor specificity of the compounds in HEK cells expressing human or mouse Mincle reporter (Supplemental Figure 4). […] The relative activity of TDM and TDB in the human and mouse HEK cells is consistent with the results reported by others ([20]). […] This synthetic version is a shorter chain version of the lipid-derived one reported to be “human-specific” ([28]).
Figure 2 Activation of human or mouse Mincle in response to synthetic αTDE compounds. The indicated compounds were dissolved in 50% isopropanol/isooctane, serially diluted in vehicle and then dried to the bottom of a tissue culture plate. HEK cells transfected with human (A–C) or mouse (D–F) Mincle and an NF-κB-driven SEAP reporter were incubated with the compounds for 24 h followed by assessment of the supernatants for SEAP levels. Data are represented as fold change in OD650 over vehicle treated cells. Graphs are mean values from three independent experiments ± SEM. Table in (G) represents the average calculated EC50 and average max SEAP value (± SD, n = 3) for each compound in each cell line. […]

primary human PBMCs = test: Cytokine production from primary human PBMCs (multiplex); format: cell-based; details: plate-coated compound, 24 h, 5 individual donors
From the text: PBMCs were obtained via leukapheresis from normal donors (AllCells, Berkeley, CA) or fresh blood was obtained from health human donors through a University of Montana Institutional Review Board (IRB) approved protocol. PBMCs obtained via leukapheresis were washed in 1x PBS and cryopreserved in freezing media (50% RPMI, 40% FCS, 10% DMSO) for future use. PBMCs from on-site human donors were separated from whole blood via density gradient separation using Histopaque 1077 (Sigma). Cells were washed in RPMI media containing 10% heat inactivated FBS, penicillin/streptomycin/glutamine (complete media) and resuspended at the desired cell concentration in complete media. Cells were treated with the indicated compound concentrations by addition to plates coated with a serial dilution of the stock compound in diluent (50% isopropanol/50% isooctane, fully evaporated).
Supernatants were harvested from treated cells following 18–24 h of incubation. Supernatants were analyzed using a DuoSet TNFα ELISA (R&D Systems, Minneapolis, MN) or Luminex multiplex panel for analytes TNFα, IL-1β, IL-6, IFNγ, IL-12p70, and IL-23 (R&D Systems) per the manufacturer's instructions. Multiplex analysis was performed using a Luminex 200 instrument (Luminex Corporation) and analyzed with StarStation2.3 software. ELISAs were read on a plate reader at 450 nm and cytokine concentration was calculated by fitting the standard curve OD values to a 4-parameter logistical model using curve fitting software (XLfit, IDBS, Alameda, CA).
To determine if the abridged cytokine repertoire induced by the compounds from the cell lines was a cell-specific or compound-specific phenomenon, the response of a heterogeneous primary human PBMCs to the αTDE compound library was also evaluated. Primary human PBMCs were incubated with the αTDE compound and supernatants were evaluated by multiplex cytokine ELISA for TNFα, IL-1β, IL-23, IL-6 (Th17 associated) and IFNγ and IL-12p70 (Th1 associated). As with THP-1 cells, robust dose-responsive induction of TNFα and IL-1β was detected, but unlike the THP-1 cells dose-responsive stimulation of IL-6 and IL-23 production was also noted in response to a subset of the αTDE compounds (Figure 5). No production of the Th1-associated IFNγ or IL-12p70 were detected (data not shown). […] Consistent with the previous THP-1 cell responses, the longer chain length compounds, B32-B46, induced minimal cytokine responses only at the highest dose evaluated (Figure 5, right graphs).
Figure 5 Cytokine production from primary human mononuclear cells in response to stimulation with synthetic trehalose diester compounds. […] Cryopreserved PBMCs were thawed and applied to the compound-coated plates and incubated at 37°C; supernatant was harvested 24 h later and analyzed for TNFα, IL-1β, IL-23, IL-6. […]

[1] = tested on: Hek Blue human or mouse Mincle-expressing cells; format: cell-based; details: top concentrations, 24 h; compared with vehicle only-treated cells
BALB/c mice [2] = test: Splenocyte restimulation with M72 and intracellular cytokine staining of CD4/CD8 T cells after vaccination; format: in vivo, mouse
Procedure: (§1) Animal studies were carried out in an OLAW and AAALAC accredited vivarium in accordance with University of Montana's IACUC guidelines for the care and use of laboratory animals. Groups of 10–14 BALB/c mice were vaccinated intramuscularly with 0.125 μg M72 antigen and indicated concentrations of various CLR adjuvant candidates (liposomal formulations) in 50 μl total volume per injection. After 14 days, blood and serum samples were collected and a secondary vaccination was administered. At day 19 (5 days post-secondary vaccination), 3–6 mice per group were euthanized and spleens were harvested the assessment of cell-mediated immunity. At day 28 (14 days post booster vaccination) the remaining 7 mice in each group were euthanized and blood was collected for the measurement of M72 specific humoral immunity.
Spleens were harvested from vaccinated mice 5 days after secondary injections and splenocytes were harvested by disruption of the spleens through a 100 μm filter. Red blood cells were lysed by incubation with red blood cell lysis buffer (Sigma) for 5 min followed by washing in 1x PBS. Cells were plated in a 96 well plate at 5 × 10^6 cells/well in 200 μL complete RPMI1640 media. Cells were incubated with 1 μg/mL M72 antigen for […] at 37°C. After 7 h, GolgiPlug (Brefeldin A, BD Biosciences) was added to each well and incubated at 37°C for a further 12 h. Following incubation, cells were stained with the cell surface antibodies against CD3e PerCP-Cy5.5 (Tonbo Biosciences, 145-2C11), CD4a APC-Cy7 (Tonbo Biosciences, RM4-5) and CD8a PE-Cy7 (Tonbo Biosciences, 53–6.7) and viability stain (Ghost 510, Tonbo Biosciences). Cells were treated with cytofix/cytoperm (BD) and stained with anti-IFNγ PE-CF594 (BD, XMG1.2), anti-IL2 FITC (Biolegend, JES6-5H4), anti-IL-5 PE (BD, TRFK5), anti-IL17A BV421 (Biolegend, TC11-18H10.1), and anti-TNFα APC (Invitrogen, MP6-XT22). Data was collected using an LSRII flow cytometer (BD) and analyzed using FlowJo 10.0 software (TreeStar). Splenocytes were gated on live, single cells, then CD3+ to identify all T cells, then gated as CD4+CD8- to identify CD4 T cells or CD4-CD8+ to identify CD8 T cells. Gates for intracellular cytokine positive CD4 or CD8 T cells are set based on re-stimulation of naïve splenocytes. Gating strategies for the detection of antigen specific CD4+ and CD8+ T cells are outlined in Supplemental Figure 3.
Figure 7 Induction of IL-17 producing CD4+ and CD8+ T cells from an αTDE adjuvanted M72 vaccine. BALB/c mice, 10 per group, were immunized two times i.m. with 0.125 μg antigen plus 2, 10, or 50 nmol of the indicated adjuvant. Spleens were harvested from a subset of 3 mice per group at 5 days post-secondary vaccination. Splenocytes were restimulated with 1 μg/mL whole antigen and transport inhibitors followed by surface staining for CD3, CD4, and CD8 and then intracellular cytokine staining. Data represent percentage of live, CD3^+/CD4^+, left, or CD3^+/CD8^+, right, cells that are also positive for IL-17A upon stimulation.
(§2) Figure 8 B16 liposomes biases a Th17/Th2 adaptive immune response. BALB/c mice, 14 per group, were immunized twice, 14 days apart, i.m with 0.1, 1, or 10 μg of M72 antigen plus either blank DDA:DSPC liposome or B16 loaded (10 nmol final dose) liposome. (A,B) M72-specific serum antibody titers at 14 days post-secondary vaccination. (C–F) Spleens were harvested from mice at 5 days post-secondary vaccination and restimulated with 1 μg/mL whole antigen and transport inhibitors followed by surface staining for CD3, CD4, and CD8 and then intracellular cytokine staining. (C) Percent of live, CD3^+/CD4^+/IL5+ cells, (D) Percent of live, CD3^+/CD8^+/IFNγ+ cells, (E) Percent of live, CD3^+/CD4^+/IL17+ cells, and (F) Percent of live, CD3^+/CD8^+/IL17+ cells. ^*p < 0.05, ^**p < 0.01, ^****p < 0.001.
Supplemental Figure 10. Production of IFNɣ, IL-2, IL-5 or TNFα by CD4 or CD8 T cells in response to various CLR compounds. […]

BALB/c mice [3] = test: Anti-M72 serum antibody ELISA after i.m. vaccination with M72 antigen plus liposomal adjuvant; format: in vivo, mouse; details: 0.125 μg M72 antigen plus 2, 10, or 50 nmol adjuvant in DDA:DSPC liposomes, i.m. two times, 14 days post-secondary vaccination
Procedure: as §1
Sera was collected from mice 14 days post-primary and 14 days post-secondary injection and diluted according to the expected antibody response (between 1:10 and 1:5000). Plates were coated with 100 μl of the full-length M72 protein at 1 μg/mL. Following washing (PBS plus tween 20) and blocking (SuperBlock, Scytek Laboratories), plates were incubated with diluted serum for 1 h followed by anti-mouse IgG, IgG1, or IgG2a-HRP secondary antibody (Bethyl Laboratories) and TMB substrate (BD). Plates were read at 450 nm. Antibody titers were determined by calculating titer of each sample at OD 0.3.
Figure 6 Serum antibody levels from mice in response to vaccination with recombinant M72 antigen and various αTDE compounds. BALB/c mice, 10 per group, were vaccinated two times i.m. with 0.125 μg antigen plus 2, 10, or 50 nmol of the indicated adjuvant. Serum was analyzed from 7 mice at 14 days post-secondary vaccination for presence of anti-M72 IgG1 and IgG2a antibodies via ELISA.
as §2

SMILES	EC50 (mouse Mincle) [nM]	Th17-associated cytokine production (TNFα, IL-1β, IL-6, IL-23) from human PBMCs (primary human PBMCs)	Cell viability of Mincle HEK cells [1]	IL-5 production in CD8+ T cells (BALB/c mice [2]; 2 nmol adjuvant, 0.125 μg antigen, over liposome control)	IL-5 production in CD8+ T cells (BALB/c mice [2]; 50 nmol adjuvant, 0.125 μg antigen, over naïve and liposome control)	IL-17+ CD4+ and CD8+ T cells (Th17 response) after M72 re-stimulation (BALB/c mice [2]; 0.125 μg antigen plus 2, 10, or 50 nmol liposomal adjuvant, i.m. two times, spleens 5 days post-secondary)	TNFα production by T cells (BALB/c mice [2]; highest dose evaluated, 0.125 μg antigen, compared to controls)	Anti-M72 serum IgG1 and IgG2a antibody (BALB/c mice [3])
CCC(CC)C(=O)OC[C@H]1O[C@H](O[C@H]2O[C@H](COC(=O)C(CC)CC)[C@@H](O)[C@H](O)[C@H]2O)[C@H](O)[C@@H](O)[C@@H]1O [Compound B6]	739	mixed responses						
CCCC(CCC)C(=O)OC[C@H]1O[C@H](O[C@H]2O[C@H](COC(=O)C(CCC)CCC)[C@@H](O)[C@H](O)[C@H]2O)[C@H](O)[C@@H](O)[C@@H]1O [Compound B8]	2850	readily detected	marked decreases in viability					
CCCCC(CCCC)C(=O)OC[C@H]1O[C@H](O[C@H]2O[C@H](COC(=O)C(CCCC)CCCC)[C@@H](O)[C@H](O)[C@H]2O)[C@H](O)[C@@H](O)[C@@H]1O [Compound B10]	3450	readily detected	marked decreases in viability					
CCCCCCCCCCCCCCCCCCCCC(CCCCCCCCCCCCCCCCCCCC)C(=O)OC[C@H]1O[C@H](O[C@H]2O[C@H](COC(=O)C(CCCCCCCCCCCCCCCCCCCC)CCCCCCCCCCCCCCCCCCCC)[C@@H](O)[C@H](O)[C@H]2O)[C@H](O)[C@@H](O)[C@@H]1O [Compound B42]				increased	increased	able to drive superior Th17 responses	increased compared to controls	neither compound significantly enhanced
